Assay [1] concerns the target T1, mu opioid receptor (MOR) (Homo sapiens, UniProt P35372). Description: PathHunter β-arrestin recruitment assay, PAM mode with EC20 endomorphin-1. Type of assay: cell-based. The conditions noted are these: for β-arr Max. Resp.: maximal response for β-arrestin recruitment; for EC50 / β-arrestin Max Response: β-arrestin recruitment. Summed up:
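β-Arrestin recruitment to the receptor was tracked by chemiluminescent β-galactosidase activity from complementing fragments (ED on receptor, EA on β-arrestin). Per-compound outputs were EC50 and percent maximal response.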

The target of assay [2] is T1, mu opioid receptor (MOR). In words: Hit Hunter cAMP signaling assay (adenylyl cyclase inhibition), PAM mode with EC20 endomorphin-1. Type of assay: cell-based. The note with it: for EC50 / cAMP Max Resp.: adenylyl cyclase inhibition; for EC50: read-out: cAMP EC50; for cAMP Max. Resp.: maximal response for adenylyl cyclase inhibition.
[3] abbreviates: activity switching by MOR PAMs, read-out: β-arrestin EC50.

The values below come from US11071731B2, “Allosteric modulators of the mu opioid receptor” (Chiromics, LLC, priority 2017, dated 2021).

T1 sequence (P35372 whole entry, the tested form may be a part): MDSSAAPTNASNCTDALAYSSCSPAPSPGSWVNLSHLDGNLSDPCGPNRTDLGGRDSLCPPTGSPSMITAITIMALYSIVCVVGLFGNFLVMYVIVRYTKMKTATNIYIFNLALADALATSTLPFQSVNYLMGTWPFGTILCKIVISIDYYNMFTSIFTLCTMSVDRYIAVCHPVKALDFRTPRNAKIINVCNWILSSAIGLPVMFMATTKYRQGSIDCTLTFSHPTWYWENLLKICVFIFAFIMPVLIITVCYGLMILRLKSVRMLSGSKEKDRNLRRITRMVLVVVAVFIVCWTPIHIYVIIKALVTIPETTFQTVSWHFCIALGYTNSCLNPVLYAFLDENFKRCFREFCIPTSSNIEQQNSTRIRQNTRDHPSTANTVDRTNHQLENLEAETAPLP

As to `COc1ccc(C2CCCCN2S(=O)(=O)c2ccc(Cl)cc2)cc1Cl` (racemic) [compound 51], the “β-arr Max. Resp.” value at mu opioid receptor (MOR) [1] is recorded as “F (F represents a maximal response of > 60%)”. The EC50 – broadly, the concentration giving half of the maximal effect – on mu opioid receptor (MOR) [1] (read-out: β-arr. EC50) was over 2100 nM. Moreover, at mu opioid receptor (MOR) [2], the EC50 was 700 to 2100 nM and the “cAMP Max. Resp.” value is given as “F (F represents a maximal response of > 60%)”.
`O=S(=O)(c1ccc(Cl)cc1)N1CCCCC1c1ccc(F)c(Cl)c1` (racemic) [compound 52]: at mu opioid receptor (MOR) [1], the “β-arr Max. Resp.” value was “F (F represents a maximal response of > 60%)”. Besides, the EC50 on mu opioid receptor (MOR) [1] (read-out: β-arr. EC50) and on mu opioid receptor (MOR) [2] was under 700 nM each time. Also, the “cAMP Max. Resp.” value at mu opioid receptor (MOR) [2] was “F (F represents a maximal response of > 60%)”.
For `O=S(=O)(c1ccc(Cl)cc1)N1CCCCC1c1ccc(F)nc1` (racemic) [compound 53], the “β-arr Max. Resp.” value on mu opioid receptor (MOR) [1] is “F (F represents a maximal response of > 60%)”. In addition, the EC50 on mu opioid receptor (MOR) [1] (read-out: β-arr. EC50) and on mu opioid receptor (MOR) [2] was over 2100 nM each time. For the same compound, the “cAMP Max. Resp.” value at mu opioid receptor (MOR) [2] is reported as “F (F represents a maximal response of > 60%)”.
On to `O=S(=O)(c1ccc(Cl)cc1)N1CCCCC1c1ccc(F)cn1` (racemic) [compound 54], for which the “β-arr Max. Resp.” value at mu opioid receptor (MOR) [1] was “F (F represents a maximal response of > 60%)”. On mu opioid receptor (MOR) [1] (read-out: β-arr. EC50), the EC50 was over 2100 nM. Also, at mu opioid receptor (MOR) [2], the EC50 is over 2100 nM and the “cAMP Max. Resp.” value is “E (E represents a maximal response of 40-60%)”.
For the compound `O=S(=O)(c1ccc(Cl)cc1)N1CCCCC1c1ccc(F)c(C(F)(F)F)c1` (racemic) [compound 55], the “β-arr Max. Resp.” value on mu opioid receptor (MOR) [1] is reported as “F (F represents a maximal response of > 60%)”. Besides, the “β-arrestin Max Response” value at mu opioid receptor (MOR) [1] (activity switching by MOR PAMs) was “F (F represents a maximal response of >60%)”. Also, the EC50 on mu opioid receptor (MOR) [1] (setting [3]) was over 2100 nM; on mu opioid receptor (MOR) [1] (read-out: β-arr. EC50), over 2100 nM; on mu opioid receptor (MOR) [2] (activity switching by MOR PAMs), over 2100 nM; at mu opioid receptor (MOR) [2], 700 to 2100 nM. Besides, the “cAMP Max Resp.” value on mu opioid receptor (MOR) [2] (activity switching by MOR PAMs) was “D (D represents a maximal response of < 40%)”. At mu opioid receptor (MOR) [2], the “cAMP Max. Resp.” value was “E (E represents a maximal response of 40-60%)”.
Turning to `O=S(=O)(c1ccc(Cl)cc1)N1CCCCC1c1ccnc(C(F)(F)F)c1` (racemic) [compound 57], the “β-arr Max. Resp.” value at mu opioid receptor (MOR) [1] is on record as “F (F represents a maximal response of > 60%)”. For the same compound, the “β-arrestin Max Response” value on mu opioid receptor (MOR) [1] (activity switching by MOR PAMs) is reported as “F (F represents a maximal response of >60%)”. In addition, the EC50 at mu opioid receptor (MOR) [1] (setting [3]), at mu opioid receptor (MOR) [1] (read-out: β-arr. EC50), at mu opioid receptor (MOR) [2] (activity switching by MOR PAMs) and on mu opioid receptor (MOR) [2] was over 2100 nM throughout. The “cAMP Max Resp.” value at mu opioid receptor (MOR) [2] (activity switching by MOR PAMs) is “E (E represents a maximal response of 40-60%)”. Besides, the “cAMP Max. Resp.” value at mu opioid receptor (MOR) [2] was “E (E represents a maximal response of 40-60%)”.
As for `N#Cc1cc(C2CCCCN2S(=O)(=O)c2ccc(Cl)cc2)ccc1F` (racemic) [compound 58], the “β-arr Max. Resp.” value on mu opioid receptor (MOR) [1] was “F (F represents a maximal response of > 60%)”. Also, the EC50 on mu opioid receptor (MOR) [1] (read-out: β-arr. EC50) and on mu opioid receptor (MOR) [2] was over 2100 nM throughout. Besides, the “cAMP Max. Resp.” value at mu opioid receptor (MOR) [2] is reported as “D (D represents a maximal response of < 40%)”.
Regarding `O=S(=O)(c1ccc(Cl)cc1)N1CCCCC1c1ccnc(F)c1` (racemic) [compound 59], the “β-arr Max. Resp.” value at mu opioid receptor (MOR) [1] is given as “F (F represents a maximal response of > 60%)”. The 50% effective concentration (EC50) on mu opioid receptor (MOR) [1] (read-out: β-arr. EC50) and at mu opioid receptor (MOR) [2] was over 2100 nM in each case. Moreover, the “cAMP Max. Resp.” value at mu opioid receptor (MOR) [2] was “F (F represents a maximal response of > 60%)”.
Consider `O=S(=O)(c1ccc(Cl)cc1)N1CCCCC1c1cccc(Cl)c1` (racemic) [compound 61], for which the “β-arr Max. Resp.” value on mu opioid receptor (MOR) [1] is given as “F (F represents a maximal response of > 60%)”. In addition, at mu opioid receptor (MOR) [1] (read-out: β-arr. EC50), the EC50 was over 2100 nM. Further, at mu opioid receptor (MOR) [2], the EC50 is over 2100 nM and the “cAMP Max. Resp.” value is on record as “E (E represents a maximal response of 40-60%)”.
`O=S(=O)(c1ccc(Cl)cc1)N1CCCCC1c1cc(F)ccn1` (racemic) [compound 62]: the “β-arr Max. Resp.” value on mu opioid receptor (MOR) [1] is “F (F represents a maximal response of > 60%)”. Also, the EC50 at mu opioid receptor (MOR) [1] (read-out: β-arr. EC50) and at mu opioid receptor (MOR) [2] was over 2100 nM each time. Further, the “cAMP Max. Resp.” value at mu opioid receptor (MOR) [2] is “D (D represents a maximal response of < 40%)”.
Take `O=S(=O)(c1ccc(Cl)cc1)N1CCCCC1c1ccc(Cl)c(C(F)(F)F)c1` (racemic) [compound 64]: the “β-arr Max. Resp.” value on mu opioid receptor (MOR) [1] is “F (F represents a maximal response of > 60%)”. In addition, the EC50 at mu opioid receptor (MOR) [1] (read-out: β-arr. EC50) and at mu opioid receptor (MOR) [2] was 700 to 2100 nM each time. In addition, the “cAMP Max. Resp.” value at mu opioid receptor (MOR) [2] is “D (D represents a maximal response of < 40%)”.
Consider `O=S(=O)(c1ccc(Cl)cc1)N1CCCCC1c1ccc(C(F)(F)F)cn1` (racemic) [compound 65], for which the “β-arr Max. Resp.” value at mu opioid receptor (MOR) [1] is given as “F (F represents a maximal response of > 60%)”. Further, the EC50 at mu opioid receptor (MOR) [1] (read-out: β-arr. EC50) was over 2100 nM. For the same compound, on mu opioid receptor (MOR) [2], the EC50 was over 2100 nM and the “cAMP Max. Resp.” value is listed as “E (E represents a maximal response of 40-60%)”.
As for `O=S(=O)(c1ccc(Cl)cc1)N1CCCCC1c1ccc2c(c1)CCO2` (racemic) [compound 66], the “β-arr Max. Resp.” value at mu opioid receptor (MOR) [1] is given as “F (F represents a maximal response of > 60%)”. Moreover, on mu opioid receptor (MOR) [1] (read-out: β-arr. EC50), the EC50 is over 2100 nM. Moreover, at mu opioid receptor (MOR) [2], the half-maximal effective concentration (EC50) is over 2100 nM and the “cAMP Max. Resp.” value is “E (E represents a maximal response of 40-60%)”.
Take `Cc1cc(C2CCCCN2S(=O)(=O)c2ccc(Cl)cc2)ccc1F` (racemic) [compound 67]: on mu opioid receptor (MOR) [1], the “β-arr Max. Resp.” value is listed as “F (F represents a maximal response of > 60%)”. Further, the EC50 on mu opioid receptor (MOR) [1] (read-out: β-arr. EC50) was over 2100 nM. In addition, on mu opioid receptor (MOR) [2], the EC50 is 700 to 2100 nM and the “cAMP Max. Resp.” value is “E (E represents a maximal response of 40-60%)”.
In the case of `COc1ccc(C2CCCCN2S(=O)(=O)c2ccc(Cl)cc2)cc1C` (racemic) [compound 68], the “β-arr Max. Resp.” value on mu opioid receptor (MOR) [1] is listed as “F (F represents a maximal response of > 60%)”. At mu opioid receptor (MOR) [1] (read-out: β-arr. EC50), the EC50 was over 2100 nM. On mu opioid receptor (MOR) [2], the EC50 lay in the range of 700 to 2100 nM and the “cAMP Max. Resp.” value is “E (E represents a maximal response of 40-60%)”.
As to `Cc1ccc(C2CCCCN2S(=O)(=O)c2ccc(Cl)cc2)cc1Br` (racemic) [compound 70], the “β-arr Max. Resp.” value on mu opioid receptor (MOR) [1] is on record as “F (F represents a maximal response of > 60%)”. Besides, the EC50 on mu opioid receptor (MOR) [1] (read-out: β-arr. EC50) was over 2100 nM. Also, at mu opioid receptor (MOR) [2], the EC50 is over 2100 nM and the “cAMP Max. Resp.” value is on record as “E (E represents a maximal response of 40-60%)”.
As for `O=S(=O)(c1ccc(Cl)cc1)N1CCCCC1c1ccc(Br)c(F)c1` (racemic) [compound 71], on mu opioid receptor (MOR) [1], the “β-arr Max. Resp.” value is “F (F represents a maximal response of > 60%)”. Further, the “β-arrestin Max Response” value on mu opioid receptor (MOR) [1] (activity switching by MOR PAMs) was “F (F represents a maximal response of >60%)”. Further, the concentration for a half-maximal effect (EC50) on mu opioid receptor (MOR) [1] (setting [3]), at mu opioid receptor (MOR) [1] (read-out: β-arr. EC50), at mu opioid receptor (MOR) [2] (activity switching by MOR PAMs) and at mu opioid receptor (MOR) [2] was over 2100 nM each time. Also, the “cAMP Max Resp.” value on mu opioid receptor (MOR) [2] (activity switching by MOR PAMs) is listed as “D (D represents a maximal response of < 40%)”. On mu opioid receptor (MOR) [2], the “cAMP Max. Resp.” value is “D (D represents a maximal response of < 40%)”.
Consider `O=S(=O)(c1ccc(Cl)cc1)N1CCCCC1c1cc(F)cc(C(F)(F)F)c1` (racemic) [compound 72], for which, at mu opioid receptor (MOR) [1], the “β-arr Max. Resp.” value is listed as “F (F represents a maximal response of > 60%)”. On mu opioid receptor (MOR) [1] (activity switching by MOR PAMs), the “β-arrestin Max Response” value is recorded as “F (F represents a maximal response of >60%)”. Further, the EC50 was 700 to 2100 nM at mu opioid receptor (MOR) [1] (setting [3]), 700 to 2100 nM at mu opioid receptor (MOR) [1] (read-out: β-arr. EC50), under 700 nM at mu opioid receptor (MOR) [2] (activity switching by MOR PAMs) and under 700 nM at mu opioid receptor (MOR) [2]. In addition, the “cAMP Max Resp.” value at mu opioid receptor (MOR) [2] (activity switching by MOR PAMs) is given as “D (D represents a maximal response of < 40%)”. In addition, the “cAMP Max. Resp.” value on mu opioid receptor (MOR) [2] is recorded as “D (D represents a maximal response of < 40%)”.
